From patent US7270975B2, “Methods for regulating bud-hypha transitions and cAMP levels in Candida albicans” (priority 2001, dated 2007)
Where two headings read alike, the source gives them in different places.

Tests used:
[1] = test system: C. albicans cap1/cap1 mutant strain, CAC1-1A; assay: Filamentous growth in SLAD agar with exogenous cAMP or dbcAMP; assay type: cell-based, Candida albicans; conditions: SLAD media, 10 mM, 37° C.; for colony morphology / filamentous growth of the cap1/cap1 mutant: 5 days
Description: (§1) To determine the effect of exogenous cAMP on bud-hypha transitions and filamenious growth of cap1/cap1 mutants, stationary phase yeasts were induced to form germ tubes and hyphae in liquid M199+serum (10^6 cells/ml) or in SLAD agar plates containing 10 mM cAMP or dbcAMP (Sigma). M199+serum containing cAMP or dbcAMP were incubated at 37° C. for 20 h and the frequency of germ tube formation was measured at various time points. SLAD plates containing cAMP or dbcAMP were incubated at 37° C. for 5 days, and filamentous growth was monitored daily.

[2] = test system: C. albicans wild type CAP1/CAP1 strain, UnoPP-1; assay type: cell-based, Candida albicans; conditions: SLAD media, 10 mM, 37° C.
[3] = test system: C. albicans cap1/cap1 mutant strain, CAC1-1A; assay: Bud-hypha transitions in liquid M199+serum with exogenous cAMP or dbcAMP; assay type: cell-based, Candida albicans; conditions: 10 mM
Description: as §1

[4] = test system: C. albicans cap1/cap1 pde2/pde2 mutant (BPS18); assay: Filamentation in SLAD agar with or without dbcAMP; assay type: cell-based, Candida albicans; conditions: SLAD agar media, 10 mM dbcAMP
Description: Filamentous growth of each strain was induced at 37° C. for 6 days in solid Spider media (a11-15) and 2% agar media containing 4% bovine calf serum (a16-20).
For growth analysis in agar-containing media, stationary-phase yeasts were mixed (200 cells/25 ml of medium) with liquefied agar Spider medium (Liu et al., 266 SCIENCE 1723-1726 (1994)), SLAD (synthetic low ammonium dextrose)(Csank et al., 66 INFECT. IMMUN. 2713-2721 (1998)), and 2% agar containing 4% bovine calf serum (Lo et al., 90 CELL 939-949 (1997).

[5] = test system: PDE2 mRNA in C. albicans cap1/cap1 mutant; conditions: cAMP 10 mM, germ tube induction conditions, data not shown
[6] = test system: C. albicans pde2/pde2 mutant (BPS4); conditions: for relative growth (CFU vs YNB alone) of the pde2/pde2 mutant: 6 h; for doubling time of pde2/pde2 mutants: 30° C.; for swollen pde2/pde2 mutant cells: YNB, 6 hours
Description: (§2) C. albicans strains were grown in YNB at 30° C. to middle-logarithmic phase, and then an equal number of cells were subcultured into YNB or YNB containing 4 mM and 40 mM cAMP and grown for 6 to 9 hours. Every hour during incubation, optical density and cell number/ml of cultures were measured by a photoelectric colorimeter (Klett-Summerson, Klett MFG. Co., Inc, NY, N.Y.) and hemacytometer, respectively. The percent of dead cells was determined by staining with 0.1% methylene blue (Sigma, St. Louis, Mo.). Also, cell morphologies were observed by microscopy. After a 6-hour incubation of each strain with YNB containing the indicated amounts of exogenous cAMP, culture samples were serially diluted, spread on YPD plates, and incubated for 2 days to determine the number of colony forming units (CFU). The percent relative growth was calculated by using the following formula: [(CFU of a strain incubated for 6 h in YNB having an indicated concentration of cAMP)/(CFU of the strain incubated for 6 h in YNB only)]×100%.

[7] = test system: C. albicans strains with a wild type PDE2 gene (UnoPP-1, BPS1, BPS9); conditions: YNB, 4 mM and 40 mM cAMP
Description: as §2

CCCC(=O)Nc1ncnc2c1ncn2[C@@H]1O[C@@H]2COP(=O)(O)O[C@H]2[C@H]1OC(=O)CCC [dbcAMP, dibutyryl cAMP]
timing of onset of filamentous growth of the cap1/cap1 mutant [1]: two
colony morphology / filamentous growth of the cap1/cap1 mutant [1]: dramatically altered the colony morphology
filamentous growth of the wild type strain [2]: slightly enhanced
hypha formation of the cap1/cap1 mutant in liquid media ([3]; 37° C., 10^6 cells/ml): enhanced
pseudohyphae detected in the presence vs absence of dbcAMP ([3]; at 3 h): twice as many pseudohyphae
filamentation of the cap1/cap1 pde2/pde2 mutant [4]: increase filamentation of the cap1/cap1 pde2/pde2 mutant to near wild type levels

Nc1ncnc2c1ncn2[C@@H]1O[C@@H]2COP(=O)(O)O[C@H]2[C@H]1O [cAMP, cyclic AMP]
timing of onset of filamentous growth of the cap1/cap1 mutant [1]: two
colony morphology / filamentous growth of the cap1/cap1 mutant [1]: dramatically altered the colony morphology
PDE2 mRNA expression in the cap1/cap1 mutant [5]: the same with or without exogenous cAMP
filamentous growth of the wild type strain [2]: slightly enhanced
relative growth (CFU vs YNB alone) of the pde2/pde2 mutant ([6]; YNB containing 4 mM cAMP): about 70%
relative growth (CFU vs YNB alone) of the pde2/pde2 mutant ([6]; YNB containing 40 mM cAMP): ~40%
doubling time of pde2/pde2 mutants ([6]; YNB with 4 mM cAMP): 3.7 h
doubling time of pde2/pde2 mutants ([6]; YNB with 40 mM cAMP): 4.8 h
swollen pde2/pde2 mutant cells ([6]; 4 mM cAMP): ~50 % of cells
swollen pde2/pde2 mutant cells ([6]; 40 mM cAMP): greater than 90 % of cells
relative growth rate of strains with a wild type PDE2 gene [7]: not affected
